Data published in patent US10130611B2, “Use of benzo-heterocycle derivatives for preventing and treating cancer or for inhibiting cancer metastasis” (MEDICINAL BIOCONVERGENCE RESEARCH CENTER, priority 2009, dated 2018).

Key:
Format in all cases: cell-based, human
A549 cells [1] = experiment: Western blotting of 67LR and 37LRP levels in A549 cells; conditions: KL1 in different amounts
Procedure: As a control, an OD level of cells treated with DMSO was measured. FIG. 32 is a photograph showing cell growth in wells containing yeast cells having indicated interaction pairs in the presence or absence of CAND-KL1. In FIG. 33, in 293 cells, through co-immunoprecipitation, the KL1-dose-dependent effect on the interaction between KRS and 67LR was tested. The cells were treated with KL1 for 3 hours, 67LR was immunoprecipitated, and co-precipitation of KRS was determined by western blotting. In FIG. 34, in the presence of KL1 in indicated levels, a laminin receptor labeled with radioisotope was mixed with GST-KRS (1 μg). GST-KRS was precipitated with glutathione-Sepharose beads, and co-precipitated laminin receptor was detected with autoradiography. In FIG. 35, in A549 cells, the effect of KL1 on the intracellular level of 67LR and 37LRP was tested with western blotting. […] GST-KRS was immobilized on a CM5 Sensor Chip, and the binding was measured by a resonance unit (RU) at indicated concentrations (indicated by different colors). […]
From among the compounds, the inventors also examined whether the compound represented by Formula 15 (indicated by CAND-KL1, and KL1) can inhibit the intracellular interaction between KRS and 67LR. […] Then, 67LR was immunoprecipitated with its antibody, and co-immunoprecipitation of KRS was determined. […]

A549 cells [2] = experiment: Cell migration assay (transwell membrane); conditions: KL1 in different amounts, 8 hours
Procedure: On MMP2 activity (FIG. 37) and cell migration (FIGS. 38 and 39), KL1-dose-dependent effect was measured. For the test on the cell migration, the cells were treated with KL1 for 8 hours. In FIG. 40, in order to see the effect of KL1 on protein synthesis of cells, A549 cells were treated with KL1 at indicated concentrations, and starved in methionine-free medium. Then, [^35S] methionine was added thereto for 2 hours. Then, the cells were incubated in complete medium for 4 hours, and the level of added methionine was measured by a scintillation counter. In FIG. 41, KL1-dose-dependent cytotoxicity was measured by using A549 cells. In FIG. 42, the effect of KL1 on cancer metastasis was measured according to the method as described above. In each group, 6 mice were included, and KL1 was abdominally injected for 3 weeks, in a dose of 30 mg/kg once a day. […] The metastasized tumor nodules over 1 mm in diameter were counted, and their average was calculated (left). […]
Cell migration was measured by using 24-well transwell chambers with polycarbonate membranes (8.0 μm pore size, Costar) as previously described (Park, S. G. et al. Human lysyl-tRNA synthetase is secreted to trigger pro-inflammatory response, Proc. Natl. Acad. Sci. USA 102, 6356-6361 (2005)). […] The migrated cells (attached to the lower face of the membrane) were counted at four randomly selected sites by a microscope (×20).

A549 cells [3] = experiment: Cytotoxicity analysis (EZ-cytox); conditions: KL1 at indicated concentrations, 24 hours
Procedure: 10^4 A549 cells were placed in a 96-well plate, and treated with the compound represented by Formula 15, at indicated concentrations for 24 hours. Then, EZ-cytox (Daeil Lab, Korea) compound was added in an amount of 10 μl to each well in accordance with the manufacturer's instruction, followed by cultivation for 2 hours. A microplate reader was used to measure the absorbance at 420 nm.

Question: With CCC(C(=O)O)n1/c(=N/C(=O)c2ccc(C)cc2)sc2ccccc21 (stereo not shown) [Compound of formula 15, 2-[2-(4-Methyl-benzoylimino)-benzothiazol-3-yl]-butyric acid] as the compound, how does the “cytoplasmic 37LRP level” value (A549 cells [1]) read?
Answer: no effect

Question: What about the “intracellular level of 67LR” value (A549 cells [1]) of the same compound?
Answer: decreased by the amount of added KL1

Question: What about the cell migration (A549 cells [2]) of the same compound?
Answer: inhibited

Question: And the viability (A549 cells [3])?
Answer: not influenced
